Legend:
[1] = tested on: endothelial protein C receptor (EPCR); assay: Western blotting of EPCR expression and EPCR pathway in HCAECs treated with EPCR activators, alone or with rapamycin; format: cell-based, human; settings: for activation of the EPCR pathway in HCAECs / protein expression of the EPCR in HCAECs: 10 μM APC, 40 μM TR47, 20 μM Parmodulin 2, 24 h; for effect on the rapamycin-induced inhibition of the EPCR in HCAECs: activator in combination with 100 nM rapamycin, 24 h
Protocol: Specifically, HCAECs are cultured in an EBM-2 (Lonza, CC3156) supplemented with a 3% fetal bovine serum (FBS) and endothelial growth factor supplement mixture (Lonza, CC4176) under standard cell culture conditions (37° C., 5% of CO2), and cells of generations of P3-5 are tested at 70%-80%. HCAECs are treated with 10 μM of APC, 40 μM of TR47 and 20 μM of Parmodulin 2, or each in combination with 100 nM of rapamycin for 24 h, and then, western blotting is performed for testing protein expression.

[2] = tested on: platelets on HCAECs; assay: Adhesion of platelets to HCAECs on coated 316 L stainless steel; format: cell-based, human; settings: PLGA slow-release coating on 316 L steel, co-culture 1 h; activators in combination with rapamycin
Protocol: (§1) The effect of APC on a simulated stent environment of PLGA slow-release coating on a 316 L steel sheet is investigated. Slow-release coatings of a solvent control (tetrahydrofuran, THF) wrapped in poly(lactic-co-glycolic acid) (PLGA 75:25), rapamycin (50 μg/mL), APC (50 μg/mL), 40 μM of TR47, and 20 μM of Parmodulin 2, or each in combination with rapamycin (50 μg/mL) are coated on surfaces of 316 L stainless steel plates respectively.
(§2) After HCAECs are grown on the 316 L stainless steel plate for 48 h, the cell viability is tested by a CCK-8 method, the cell multiplication capacity is tested by an EdU method, and the cell migration capacity is tested by a scratch method. […] Calcein-AM staining is followed by fluorescence microscopy.
(§3) The above cells are inoculated on 316 SS, 316 L SS/Rapamycin, 316 L SS/Rapamycin/APC, 316 L SS/Rapamycin/TR47, and 316 L SS/Rapamycin/Parmodulin 2 in a 24-well plate at a density of 2×10^4 cells/mL. 10 μL of CCK-8 reaction solution is added to a 24-well plate according to CCK-8 instructions, and the optical density value (OD value) is measured at 4 h by a spectrophotometer with a wavelength of 450 nm. For EdU analysis, reagent A is added a medium in a 24-well plate and cultured at 37° C. for 4 h to label EdU, and then, cells are captured with a fluorescence microscope (EVOS FL) according to manufacturer's instructions. […]

[3] = tested on: HCAECs; assay: CCK-8 viability of HCAECs on coated 316 L stainless steel; format: cell-based, human; settings: PLGA slow-release coating, 48 h, rapamycin 50 μg/mL, activators in combination with rapamycin
Protocol: as §1, §2, §3

[4] = tested on: HCAECs; assay: Scratch migration of HCAECs on coated 316 L stainless steel; format: cell-based, human; settings: PLGA slow-release coating, 48 h, scratch method; rapamycin 50 μg/mL; activators in combination with rapamycin
Protocol: as §1
After HCAECs are grown on the 316 L stainless steel plate for 48 h, the cell viability is tested by a CCK-8 method, the cell multiplication capacity is tested by an EdU method, and the cell migration capacity is tested by a scratch method. The HCAECs are co-cultured with neutrophils (10^6/well) or platelets (5×10^6/well) labeled with 2 μM of PKH-26 for 1 h. Calcein-AM staining is followed by fluorescence microscopy.

[5] = tested on: HCAECs; assay: EdU multiplication of HCAECs on coated 316 L stainless steel; format: cell-based, human; settings: PLGA slow-release coating, 48 h, rapamycin 50 μg/mL, activators in combination with rapamycin
Protocol: as §1, §2, §3

[6] = tested on: HCAECs; assay: Growth of HCAECs on coated 316 L stainless steel (stent simulation environment); format: cell-based, human; settings: PLGA slow-release coating, 48 h; rapamycin 50 μg/mL; activators (APC 50 μg/mL, TR47 40 μM, Parmodulin 2 20 μM) in combination with rapamycin
Protocol: as §1, §2, §3

[7] = tested on: neutrophils on HCAECs; assay: Adhesion of neutrophils to HCAECs on coated 316 L stainless steel; format: cell-based, human; settings: PLGA slow-release coating on 316 L steel, co-culture 1 h; activators in combination with rapamycin
Protocol: as §1, §2, §3

[8] = tested on: endothelial protein C receptor (EPCR); assay: Western blotting of EPCR protein expression in HCAECs treated with limus drugs or paclitaxel; format: cell-based, human; settings: 24 h
Protocol: (§4) Specifically, HCAECs are cultured in an endothelial cell basal medium (EBM)-2 (Lonza, CC3156) supplemented with a 3% fetal bovine serum (FBS) and endothelial growth factor supplement mixture (Lonza, CC4176) under standard cell culture conditions (37° C., 5% CO2), and P3-5 cells are tested at 70%-80%. Western blotting is performed to test protein expression after HCAECs are treated with rapamycin, zotarolimus, everolimus, and paclitaxel at the doses shown in FIG. 1, or 100 nM of tacrolimus, deforolimus, biolimus A9, and pimecrolimus for 24 h. Alternatively, C57BL6/J mice received rapamycin, zotarolimus, everolimus, and paclitaxel at 2 mg/kg of body weight daily via tail vein injection for 2 weeks, and immunofluorescence observation of tissues is performed.

[9] = tested on: endothelial protein C receptor (EPCR); assay: Immunofluorescence of EPCR in mouse cardiac vessels after tail vein injection; format: in vivo; settings: C57BL6/J mice, 2 mg/kg daily via tail vein injection for 2 weeks
Protocol: as §4

[10] = tested on: vascular smooth muscle cells (HCASMCs, HASMCs); assay: Transwel chamber and scratch migration tests of vascular smooth muscle cells; format: cell-based, human; settings: APC 10 μM
Protocol: (§5) Generations 3-5 of primary human coronary artery smooth muscle cells (HCASMCs) are cultured in a growth medium (Cell applications, cat #31-500). Human arterial smooth muscle cells (HASMCs) are cultured in a smooth muscle cell culture medium containing 2% of FBS and 1% of penicillin/streptomycin at 37° C. in a humidified atmosphere containing 5% of CO2. Ad-EC or Ad-EPCR infected the cells for 48 h. APC is 10 μM, and rapamycin is 100 nM. Fluorescence is observed by a microscope. Protein expression is tested by means of western blotting. The cell viability is tested by means of CCK-8, the cell multiplication capacity is observed by means of EdU, and the migration capacity is evaluated by means of Transwel chamber and scratch tests.

[11] = tested on: vascular smooth muscle cells (HCASMCs, HASMCs); assay: EdU cell multiplication of vascular smooth muscle cells; format: cell-based, human; settings: APC 10 μM
Protocol: as §5

[12] = tested on: vascular smooth muscle cells (HCASMCs, HASMCs); assay: CCK-8 cell viability of vascular smooth muscle cells; format: cell-based, human; settings: APC 10 μM
Protocol: as §5

[13] = doses shown in FIG. 1, western blotting

CCCC(=O)Nc1cccc(NC(=O)c2ccccc2Br)c1 [Parmodulin 2]
activation of the EPCR pathway in HCAECs [1]: protectively activate the EPCR pathway
protein expression of the EPCR in HCAECs [1]: induce protein expression of the EPCR in the cells
effect on the rapamycin-induced inhibition of the EPCR in HCAECs [1]: antagonize the inhibitory effect of limus drugs such as rapamycin on the EPCR
adhesion of platelets to surface of ECs [2]: inhibit adhesion
viability of HCAECs on 316 L stainless steel [3]: restore
migration of HCAECs on 316 L stainless steel [4]: restore
multiplication of HCAECs on 316 L stainless steel [5]: restore
growth of HCAECs on 316 L stainless steel [6]: restore
adhesion of neutrophils to surface of ECs [7]: inhibit adhesion

CO[C@H]1C[C@@H]2CC[C@@H](C)[C@@](O)(O2)C(=O)C(=O)N2CCCC[C@H]2C(=O)O[C@H]([C@H](C)C[C@@H]2CC[C@@H](OCCO)[C@H](OC)C2)CC(=O)[C@H](C)/C=C(\C)[C@@H](O)[C@@H](OC)C(=O)[C@H](C)C[C@H](C)/C=C/C=C/C=C/1C [everolimus]
expression of EPCR in HCAECs [8, 13]: inhibit expression of an EPCR in HCAECs in a concentration-dependent manner
expression of EPCR in mouse cardiac vessels [9]: inhibit expression of the EPCR in mouse cardiac vessels

activated protein C [APC]
migration capacity of vascular smooth muscle cells [10]: does not affect
activation of the EPCR pathway in HCAECs [1]: protectively activate the EPCR pathway
protein expression of the EPCR in HCAECs [1]: induce protein expression of the EPCR in the cells
effect on the rapamycin-induced inhibition of the EPCR in HCAECs [1]: antagonize the inhibitory effect of limus drugs such as rapamycin on the EPCR
adhesion of platelets to surface of ECs [2]: inhibit adhesion
viability of HCAECs on 316 L stainless steel [3]: restore
multiplication capacity of vascular smooth muscle cells [11]: does not affect
migration of HCAECs on 316 L stainless steel [4]: restore
multiplication of HCAECs on 316 L stainless steel [5]: restore
cell viability of vascular smooth muscle cells [12]: does not affect
growth of HCAECs on 316 L stainless steel [6]: restore
adhesion of neutrophils to surface of ECs [7]: inhibit adhesion

C=CC[C@@H]1/C=C(\C)C[C@H](C)C[C@H](OC)[C@H]2O[C@@](O)(C(=O)C(=O)N3CCCC[C@H]3C(=O)O[C@H](/C(C)=C/[C@@H]3CC[C@@H](O)[C@H](OC)C3)[C@H](C)[C@@H](O)CC1=O)[C@H](C)C[C@@H]2OC [tacrolimus]
expression of EPCR in HCAECs ([8]; 100 nM, western blotting): inhibit expression of the EPCR in HCAECs

CC[C@@H]1/C=C(\C)C[C@H](C)C[C@H](OC)[C@H]2O[C@@](O)(C(=O)C(=O)N3CCCC[C@H]3C(=O)O[C@H](/C(C)=C/[C@@H]3CC[C@H](Cl)[C@H](OC)C3)[C@H](C)[C@@H](O)CC1=O)[C@H](C)C[C@@H]2OC [pimecrolimus]
expression of EPCR in HCAECs ([8]; 100 nM, western blotting): inhibit expression of the EPCR in HCAECs

CCOCCO[C@@H]1CC[C@@H](C[C@@H](C)[C@@H]2CC(=O)[C@H](C)/C=C(\C)[C@@H](O)[C@@H](OC)C(=O)[C@H](C)C[C@H](C)/C=C/C=C/C=C(\C)[C@@H](OC)C[C@@H]3CC[C@@H](C)[C@@](O)(O3)C(=O)C(=O)N3CCCC[C@H]3C(=O)O2)C[C@H]1OC [biolimus A9]
expression of EPCR in HCAECs ([8]; 100 nM, western blotting): inhibit expression of the EPCR in HCAECs

CO[C@H]1C[C@@H]2CC[C@@H](C)[C@@](O)(O2)C(=O)C(=O)N2CCCC[C@H]2C(=O)O[C@H]([C@H](C)C[C@@H]2CC[C@@H](OP(C)(C)=O)[C@H](OC)C2)CC(=O)[C@H](C)/C=C(\C)[C@@H](O)[C@@H](OC)C(=O)[C@H](C)C[C@H](C)/C=C/C=C/C=C/1C [deforolimus]
expression of EPCR in HCAECs ([8]; 100 nM, western blotting): inhibit expression of the EPCR in HCAECs

CO[C@H]1C[C@@H]2CC[C@@H](C)[C@@](O)(O2)C(=O)C(=O)N2CCCC[C@H]2C(=O)O[C@H]([C@H](C)C[C@@H]2CC[C@H](n3cnnn3)[C@H](OC)C2)CC(=O)[C@H](C)/C=C(\C)[C@@H](O)[C@@H](OC)C(=O)[C@H](C)C[C@H](C)/C=C/C=C/C=C/1C [zotarolimus]
expression of EPCR in HCAECs [8, 13]: inhibit expression of an EPCR in HCAECs in a concentration-dependent manner
expression of EPCR in mouse cardiac vessels [9]: inhibit expression of the EPCR in mouse cardiac vessels

CC(=O)O[C@H]1C(=O)[C@@]2(C)[C@H]([C@H](OC(=O)c3ccccc3)[C@]3(O)C[C@H](OC(=O)[C@H](O)[C@@H](NC(=O)c4ccccc4)c4ccccc4)C(C)=C1C3(C)C)[C@]1(OC(C)=O)CO[C@@H]1C[C@@H]2O [paclitaxel]
expression of EPCR in HCAECs [8, 13]: inhibit expression of an EPCR in HCAECs in a concentration-dependent manner
expression of EPCR in mouse cardiac vessels [9]: inhibit expression of the EPCR in mouse cardiac vessels

Reference: US20250268736A1, “VASCULAR STENT AND MANUFACTURING PROCESS THEREFOR” (THE SECOND AFFILIATED HOSPITAL OF GUANGZHOU MEDICAL …, priority 2024, published 2025)
